Test results: ChEMBL document CHEMBL4673356, “Assessing the cellular toxicity of peptide inhibitors of intracellular protein-protein interactions by microinjection” (Bioorg Med Chem, 2021); call rule not given here
Where a SMILES comes first, the peptide text is derived from it. [ ]: non-standard residue; d: D form. The star is where a group is joined. X1 = CCN1/C(=C/C=C/C=C/C2=[N+](CCCCCC(=O)*)c3ccc(S(=O)(=O)[O-])cc3C2(C)C)C(C)(C)c2cc(S(=O)(=O)O)ccc21; βAla = NCCC(=O)O

How the values were obtained:
AD293 [1] = test: Cytotoxicity against human AD293 cells assessed as cell viability at 2.7 to 273 uM co-treated via microinjection with Cy5-BSA into nucleus and measured after 5 hrs by Cy5-BSA/PI staining based fluorescence analysis; conditions: ad293, 5 h, dose 2.7-273 µM
AD293 [2] = test: Cytotoxicity against human AD-293 cells assessed as morphologically intact viable cells at 2.7 to 273 uM co-treated via microinjection with Cy5-BSA into cytoplasm and measured after 5 hrs by Cy5-BSA/PI staining based fluorescence analysis; assay type: cell-based; conditions: ad293, 5 h, dose 2.7-273 µM
[3] = Stability of the compound in human AD293 cells assessed as intact compound remaining at 20 uM measured after 5 hrs by LC-MS analysis; assay type: ADME, cell-based; conditions: read-out: Stabilty
AD293 [4] = test: Cytotoxicity against human AD293 cells assessed as cell viability at 2.7 to 273 uM co-treated via microinjection with Cy5-BSA into cytoplasm and measured after 5 hrs by Cy5-BSA/PI staining based fluorescence analysis; conditions: ad293, 5 h, dose 2.7-273 µM
AD293 [5] = test: Cytotoxicity against human AD293 cells assessed as cell viability at 200 uM; assay type: cell-based; conditions: ad293, 200 µM
[6] = Stability of the compound in human AD293 cells assessed as intact compound remaining at 20 uM measured after 24 hrs by LC-MS analysis; assay type: ADME, cell-based; conditions: read-out: Stabilty
[7] = Inhibition of iNOS (unknown origin) and SPSB2 interaction assessed as binding affinity to murine SPSB2 immobilized on CM5 chip by SPR assay; parameters: species or system Mus musculus
[8] = Drug localization in cytosol of human AD293 cells at 7.3 uM treated via microinjection into cytoplasm measured up to 5 hrs by confocal microscopic analysis; assay type: ADME, subcellular

| remaining at 5 h, 20 µM [3] [%] | remaining at 24 h, 20 µM [6] [%] | Kd [7] [nM] | Drug uptake [8] | Structure (SMILES) | Activity (AD293 [1]) | Activity (AD293 [2]) | Activity (AD293 [4]) | Activity (AD293 [5]) |
| --- | --- | --- | --- | --- | --- | --- | --- | --- |
| 97.5 | 94.7 | 21 | – | CC[C@H](C)[C@@H]1NC(=O)[C@H](CC(=O)O)NC(=O)[C@H](Cc2c[nH]c3ccccc23)NC(=O)CCNC(=O)[C@H](CC(N)=O)NC(=O)[C@H](CC(N)=O)NC(=O)[C@H](CC(N)=O)NC1=O (cyclo(DINNN[βAla]W)) | Non-Toxic | Non-Toxic | Non-Toxic | Non-Toxic |
| – | – | 110 | Active | CCN1/C(=C/C=C/C=C/C2=[N+](CCCCCC(=O)NCCCC[C@@H]3NC(=O)[C@H](CC(=O)O)NC(=O)[C@H](Cc4c[nH]c5ccccc45)NC(=O)CCNC(=O)[C@H](CC(N)=O)NC(=O)[C@H](CC(N)=O)NC(=O)[C@H](CC(N)=O)NC3=O)c3ccc(S(=O)(=O)[O-])cc3C2(C)C)C(C)(C)c2cc(S(=O)(=O)O)ccc21 (cyclo(DK(X1)NNN[βAla]W)) | – | – | – | – |
